Source: patent publication US11311592B2, “Bauhinia extract and uses thereof” (Academia Sinica, priority 2015, dated 2022)

Test system: p62-RL-HEK cells
Experiment: Cell-based p62-Renilla luciferase reporter assay of autophagy activity
Parameters: species or system Human
Settings: positive controls: 3-MA 5 μM, rapamycin 200 nM; 24 hr at 37° C.
Method: FIG. 3. Treatments with BVEE induces autophagy. A. GFP-LC3-HEK cells were treated with BVEE (50 μg/ml) at 37° C. for 24 h. An autophagy inducer, rapamycin, and an autophagy inhibitor, 3-MA, were included as controls. Clarified lysates containing equal amounts of proteins were resolved by SDS-PAGE and analyzed by Western blotting with anti-p62 (top panel), anti-LC3 (middle panel), and anti-GAPDH (bottom panel) antibodies. B. A stable cell line p62-RL-HEK that overexpresses Renilla luciferase-tagged p62 was treated with BVEE (50 μg/ml) at 37° C. for 24 h. Additional treatments with either rapamycin or 3-MA were included as controls. Renilla luciferase signal was determined by the addition of coelenterazine at equal volume to a final concentration of 5 μM. Luminescence emitted by DMSO-treated cells (Control) was referred to as 100% relative Renilla luciferase signal;
FIG. 12. The autophagy-inducing potency of extracts derived from B. variegate (BV) by using different solvents. The p62-RL-HEK cells were treated with or without B. variegate extract ([…]) at 37° C. for 24 h. Additional treatments with either rapamycin (RAP) or 3-MA were included as references. Renilla luciferase (Luc) activity was determined by the addition of coelenterazine to a final concentration of […]. Luminescence emitted by DMSO-treated cells (Control) was referred to as 100% relative Renilla luciferase signal. […]

Cn1cnc(N)c2ncnc1-2 [3-MA, 3-methyladenine]
luciferase signal of p62-RL-HEK cells: significant increase
